According to US20240082223A1, “DIHYDROFUROPYRIDINE DERIVATIVES AS RHO- KINASE INHIBITORS” (CHIESI FARMACEUTICI S.P.A., priority 2020, published 2024):

How the values were obtained:
ROCK1 = ROCK1 (Homo sapiens, UniProt Q13464); assay: In vitro inhibitory activity assay ROCK1 (Method A, ADP-Glo, 10 μM ATP); assay type: biochemical; conditions: ATP 10 μM, read-out: Method A ROCK 1 (Ki)
Procedure: (§1) In vitro inhibitory activity assay description ROCK1 and ROCK2
(§2) The effectiveness of compounds of the present invention to inhibit Rho kinase activity can be determined in a 10 μl assay containing 40 mM Tris pH7.5, 20 mM MgCl2 0.1 mg/mL BSA, 50 μM DTT and 2.5 μM peptide substrate (Myelin Basic Protein) using an ADP-Glo kit (Promega). Compounds were dissolved in DMSO such that the final concentration of DMSO was 1% in the assay. All reactions/incubations are performed at 25° C. Compound (2 uL) and either Rho kinase 1 or 2 (4 μl) were mixed and incubated for 30 min. Reactions were initiated by addition of ATP (4 μL) such that the final concentration of ATP in the assay was 10 μM. After a 1 hour incubation […] of ADP-Glo Reagent was added and after a further 45 minutes incubation 20 uL of Kinase Detection Buffer was added and the mixture incubated for a further 30 minutes. The luminescent signal was measured on a luminometer. […] Compounds were tested in dose-response format and the inhibition of kinase activity was calculated at each concentration of compound. To determine the IC50 (concentration of compound required to inhibit 50% of the enzyme activity) data were fit to a plot of % inhibition vs Log10 compound concentration using a sigmoidal fit with a variable slope and fixing the maximum to 100% and the minimum to 0%. To determine the Ki values the Cheng-Prusoff equation was utilized (Ki=IC50/(1+[S]/Km).

ROCK2 = ROCK2 (Homo sapiens, UniProt O75116); assay: In vitro inhibitory activity assay ROCK2 (Method A, ADP-Glo, 10 μM ATP); assay type: biochemical; conditions: ATP 10 μM, read-out: Method A ROCK 2 (Ki)
Procedure: as §1, §2

ROCK2, sequence (O75116 whole entry): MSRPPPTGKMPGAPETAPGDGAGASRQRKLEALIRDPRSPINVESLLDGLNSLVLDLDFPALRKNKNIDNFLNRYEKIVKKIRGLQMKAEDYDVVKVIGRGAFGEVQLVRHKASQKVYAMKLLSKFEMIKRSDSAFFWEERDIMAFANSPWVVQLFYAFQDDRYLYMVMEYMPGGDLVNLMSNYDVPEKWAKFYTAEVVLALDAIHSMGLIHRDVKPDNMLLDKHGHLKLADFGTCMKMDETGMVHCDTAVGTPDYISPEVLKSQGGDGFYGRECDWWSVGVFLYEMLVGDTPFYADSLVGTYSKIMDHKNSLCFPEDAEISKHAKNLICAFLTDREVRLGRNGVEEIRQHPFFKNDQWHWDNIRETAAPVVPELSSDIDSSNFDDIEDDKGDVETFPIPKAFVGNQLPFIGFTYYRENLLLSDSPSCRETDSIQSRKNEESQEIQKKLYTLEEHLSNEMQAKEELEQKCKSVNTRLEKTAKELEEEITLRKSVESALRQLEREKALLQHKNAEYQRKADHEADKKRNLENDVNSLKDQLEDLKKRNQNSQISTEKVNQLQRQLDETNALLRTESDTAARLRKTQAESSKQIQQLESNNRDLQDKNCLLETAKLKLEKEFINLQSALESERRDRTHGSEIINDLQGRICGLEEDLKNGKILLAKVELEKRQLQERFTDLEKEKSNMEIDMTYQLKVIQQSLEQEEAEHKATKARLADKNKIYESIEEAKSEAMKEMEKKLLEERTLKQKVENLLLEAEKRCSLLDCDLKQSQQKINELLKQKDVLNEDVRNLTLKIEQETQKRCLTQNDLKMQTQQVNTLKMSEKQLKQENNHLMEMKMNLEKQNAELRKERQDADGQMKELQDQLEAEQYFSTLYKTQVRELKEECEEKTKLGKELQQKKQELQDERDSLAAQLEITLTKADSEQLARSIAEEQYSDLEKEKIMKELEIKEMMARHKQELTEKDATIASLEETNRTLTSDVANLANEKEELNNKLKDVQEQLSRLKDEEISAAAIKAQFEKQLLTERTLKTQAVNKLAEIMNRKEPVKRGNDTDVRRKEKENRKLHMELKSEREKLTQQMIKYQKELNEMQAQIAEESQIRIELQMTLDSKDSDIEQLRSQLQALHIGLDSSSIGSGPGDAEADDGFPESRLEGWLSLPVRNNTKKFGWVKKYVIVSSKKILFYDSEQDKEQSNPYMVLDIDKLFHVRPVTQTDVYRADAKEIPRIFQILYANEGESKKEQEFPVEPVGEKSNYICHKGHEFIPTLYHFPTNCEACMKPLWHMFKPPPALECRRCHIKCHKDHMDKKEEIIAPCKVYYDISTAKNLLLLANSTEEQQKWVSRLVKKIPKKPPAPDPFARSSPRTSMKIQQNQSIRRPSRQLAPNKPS
ROCK1, sequence (Q13464 whole entry): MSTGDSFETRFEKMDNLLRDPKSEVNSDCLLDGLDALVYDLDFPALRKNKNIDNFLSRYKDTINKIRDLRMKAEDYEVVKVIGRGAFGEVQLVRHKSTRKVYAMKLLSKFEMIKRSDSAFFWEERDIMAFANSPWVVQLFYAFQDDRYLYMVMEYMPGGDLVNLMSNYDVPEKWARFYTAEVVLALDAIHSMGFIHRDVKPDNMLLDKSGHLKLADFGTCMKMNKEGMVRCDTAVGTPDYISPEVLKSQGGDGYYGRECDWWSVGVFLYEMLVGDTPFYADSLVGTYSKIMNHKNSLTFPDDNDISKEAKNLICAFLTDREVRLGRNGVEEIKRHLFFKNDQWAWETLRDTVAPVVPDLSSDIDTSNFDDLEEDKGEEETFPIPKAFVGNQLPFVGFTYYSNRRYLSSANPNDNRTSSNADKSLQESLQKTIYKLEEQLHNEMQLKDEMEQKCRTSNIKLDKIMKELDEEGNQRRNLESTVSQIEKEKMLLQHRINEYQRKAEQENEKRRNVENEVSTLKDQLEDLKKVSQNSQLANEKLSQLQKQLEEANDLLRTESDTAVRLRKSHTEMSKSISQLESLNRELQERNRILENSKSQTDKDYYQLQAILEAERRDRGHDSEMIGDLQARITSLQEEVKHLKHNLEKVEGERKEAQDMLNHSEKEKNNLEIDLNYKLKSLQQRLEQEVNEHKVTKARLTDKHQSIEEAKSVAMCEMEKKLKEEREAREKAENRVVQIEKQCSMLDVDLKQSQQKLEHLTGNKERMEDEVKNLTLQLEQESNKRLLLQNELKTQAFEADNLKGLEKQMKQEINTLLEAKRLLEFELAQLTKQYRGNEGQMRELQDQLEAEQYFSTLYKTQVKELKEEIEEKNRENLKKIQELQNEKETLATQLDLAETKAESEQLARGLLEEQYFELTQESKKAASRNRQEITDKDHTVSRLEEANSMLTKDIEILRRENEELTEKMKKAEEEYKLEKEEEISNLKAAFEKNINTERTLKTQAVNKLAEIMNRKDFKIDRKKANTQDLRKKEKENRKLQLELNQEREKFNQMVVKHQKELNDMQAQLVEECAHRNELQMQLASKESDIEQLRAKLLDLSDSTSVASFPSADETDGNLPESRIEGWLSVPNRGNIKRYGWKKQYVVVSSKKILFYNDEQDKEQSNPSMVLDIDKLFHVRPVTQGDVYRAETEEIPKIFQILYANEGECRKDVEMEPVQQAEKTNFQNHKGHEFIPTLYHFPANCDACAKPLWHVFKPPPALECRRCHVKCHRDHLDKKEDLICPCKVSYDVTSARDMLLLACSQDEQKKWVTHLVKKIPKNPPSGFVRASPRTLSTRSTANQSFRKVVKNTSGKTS

Structure (SMILES) | Ki (ROCK1) [nM] | Ki (ROCK2) [nM]
CN1CCc2nc(NC(=O)c3cccc(CNc4ncc(-c5cn[nH]c5)c5c4CCO5)c3)sc2C1 [Example 21, 3-(((7-(1H-pyrazol-4-yl)-2,3-dihydrofuro[3,2-c]pyridin-4-yl)amino)methyl)-N-(5-methyl-4,5,6,7-tetrahydrothiazolo[5,4-c]pyridin-2-yl)benzamide] | ≤ 3 | ≤ 3
O=C(NC1CCN(CCc2ccccc2)CC1)c1cccc(CNc2ncc(-c3cn[nH]c3)c3c2CCO3)c1 [Example 26, 3-(((7-(1H-pyrazol-4-yl)-2,3-dihydrofuro[3,2-c]pyridin-4-yl)amino)methyl)-N-(1-phenethylpiperidin-4-yl)benzamide] | ≤ 3 | ≤ 3
CN(C)Cc1ccc(C(=O)Nc2cccc(CNc3ncc(-c4cn[nH]c4)c4c3CCO4)c2)cc1 [Example 35, N-(3-(((7-(1H-Pyrazol-4-yl)-2,3-dihydrofuro[3,2-c]pyridin-4-yl)amino)methyl)phenyl)-4-((dimethylamino)methyl)benzamide] | ≤ 3 | ≤ 3
CN1CCc2sc(C(=O)Nc3cccc(CNc4ncc(-c5cn[nH]c5)c5c4CCO5)c3)nc2C1 [Example 36, N-(3-(((7-(1H-pyrazol-4-yl)-2,3-dihydrofuro[3,2-c]pyridin-4-yl)amino)methyl)phenyl)-5-methyl-4,5,6,7-tetrahydrothiazolo[4,5-c]pyridine-2-carboxamide] | ≤ 3 | ≤ 3
CN1CCc2nc(C(=O)Nc3cccc(CNc4ncc(-c5cn[nH]c5)c5c4CCO5)c3)sc2C1 [Example 37, N-(3-(((7-(1H-pyrazol-4-yl)-2,3-dihydrofuro[3,2-c]pyridin-4-yl)amino)methyl)phenyl)-5-methyl-4,5,6,7-tetrahydrothiazolo[5,4-c]pyridine-2-carboxamide] | ≤ 3 | ≤ 3
O=C(Nc1cccc(CNc2ncc(-c3cn[nH]c3)c3c2CCO3)c1)c1nc2c(s1)CN(CCO)CC2 [Example 38, N-(3-(((7-(1H-pyrazol-4-yl)-2,3-dihydrofuro[3,2-c]pyridin-4-yl)amino)methyl)phenyl)-5-(2-hydroxyethyl)-4,5,6,7-tetrahydrothiazolo[5,4-c]pyridine-2-carboxamide] | ≤ 3 | ≤ 3
Cn1ncc2cc(C(=O)Nc3cccc(CNc4ncc(-c5cn[nH]c5)c5c4CCO5)c3)ccc21 [Example 39, N-(3-(((7-(1H-pyrazol-4-yl)-2,3-dihydrofuro[3,2-c]pyridin-4-yl)amino)methyl)phenyl)-1-methyl-1H-indazole-5-carboxamide] | ≤ 3 | ≤ 3
O=C(Nc1cccc(CNc2ncc(-c3cn[nH]c3)c3c2CCO3)c1)c1ccc2c(c1)CCNC2 [Example 40, N-(3-(((7-(1H-pyrazol-4-yl)-2,3-dihydrofuro[3,2-c]pyridin-4-yl)amino)methyl)phenyl)-1,2,3,4-tetrahydroisoquinoline-6-carboxamide] | ≤ 3 | ≤ 3
Cn1nc(C(=O)Nc2cccc(CNc3ncc(-c4cn[nH]c4)c4c3CCO4)c2)c2ccccc21 [Example 41, N-(3-(((7-(1H-pyrazol-4-yl)-2,3-dihydrofuro[3,2-c]pyridin-4-yl)amino)methyl)phenyl)-1-methyl-1H-indazole-3-carboxamide] | > 30 | 3 to 30
Cn1ncc2c(C(=O)Nc3cccc(CNc4ncc(-c5cn[nH]c5)c5c4CCO5)c3)cccc21 [Example 42, N-(3-(((7-(1H-pyrazol-4-yl)-2,3-dihydrofuro[3,2-c]pyridin-4-yl)amino)methyl)phenyl)-1-methyl-1H-indazole-4-carboxamide] | 3 to 30 | ≤ 3
O=C(Nc1cc(CNc2ncc(-c3cn[nH]c3)c3c2CCO3)ccc1F)c1ccc2c(c1)CCNC2 [Example 47, N-(5-(((7-(1H-pyrazol-4-yl)-2,3-dihydrofuro[3,2-c]pyridin-4-yl)amino)methyl)-2-fluorophenyl)-1,2,3,4-tetrahydroisoquinoline-6-carboxamide] | ≤ 3 | ≤ 3
O=C(Cc1ccccc1)Nc1cccc(CNc2ncc(-c3cn[nH]c3)c3c2CCO3)c1 [Example 50, N-(3-(((7-(1H-pyrazol-4-yl)-2,3-dihydrofuro[3,2-c]pyridin-4-yl)amino)methyl)phenyl)-2-phenylacetamide] | 3 to 30 | 3 to 30
CN1CCc2cc(C(=O)Nc3cccc(CNc4ncc(-c5cn[nH]c5)c5c4CCO5)c3)cnc2C1 [Example 51, N-(3-(((7-(1H-pyrazol-4-yl)-2,3-dihydrofuro[3,2-c]pyridin-4-yl)amino)methyl)phenyl)-7-methyl-5,6,7,8-tetrahydro-1,7-naphthyridine-3-carboxamide] | ≤ 3 | ≤ 3
CC(=O)Nc1cccc(C(C)Nc2ncc(-c3cn[nH]c3)c3c2CCO3)c1 (stereo not shown) [Example 52, N-(3-(1-((7-(1H-pyrazol-4-yl)-2,3-dihydrofuro[3,2-c]pyridin-4-yl)amino)ethyl)phenyl)acetamide] | 3 to 30 | 3 to 30

More lines, now with the values ahead:

Ki (ROCK1) [nM] | Ki (ROCK2) [nM] | Structure (SMILES)
≤ 3 | ≤ 3 | O=C(NCCc1ccncc1)c1cccc(CNc2ncc(-c3cn[nH]c3)c3c2CCO3)c1 [Example 17, 3-(((7-(1H-pyrazol-4-yl)-2,3-dihydrofuro[3,2-c]pyridin-4-yl)amino)methyl)-N-(2-(pyridin-4-yl)ethyl)benzamide]
≤ 3 | ≤ 3 | CN(C)Cc1cccc(NC(=O)c2cccc(CNc3ncc(-c4cn[nH]c4)c4c3CCO4)c2)c1 [Example 18, 3-(((7-(1H-pyrazol-4-yl)-2,3-dihydrofuro[3,2-c]pyridin-4-yl)amino)methyl)-N-(3-((dimethylamino)methyl)phenyl)benzamide]
≤ 3 | ≤ 3 | CN(C)Cc1cccc(CNC(=O)c2cccc(CNc3ncc(-c4cn[nH]c4)c4c3CCO4)c2)c1 [Example 19, 3-(((7-(1H-pyrazol-4-yl)-2,3-dihydrofuro[3,2-c]pyridin-4-yl)amino)methyl)-N-(3-((dimethylamino)methyl)benzyl)benzamide]
≤ 3 | ≤ 3 | O=C(NCCN1CCOCC1)c1cccc(CNc2ncc(-c3cn[nH]c3)c3c2CCO3)c1 [Example 20, 3-(((7-(1H-pyrazol-4-yl)-2,3-dihydrofuro[3,2-c]pyridin-4-yl)amino)methyl)-N-(2-morpholinoethyl)benzamide]
≤ 3 | ≤ 3 | O=C(NCCc1cccnc1)c1cccc(CNc2ncc(-c3cn[nH]c3)c3c2CCO3)c1 [Example 22, 3-(((7-(1H-pyrazol-4-yl)-2,3-dihydrofuro[3,2-c]pyridin-4-yl)amino)methyl)-N-(2-(pyridin-3-yl)ethyl)benzamide]
≤ 3 | ≤ 3 | O=C(N[C@H](CO)c1ccccc1)c1cccc(CNc2ncc(-c3cn[nH]c3)c3c2CCO3)c1 [Example 23, (S)-3-(((7-(1H-pyrazol-4-yl)-2,3-dihydrofuro[3,2-c]pyridin-4-yl)amino)methyl)-N-(2-hydroxy-1-phenylethyl)benzamide]
≤ 3 | ≤ 3 | CN(C)Cc1ccc(CNC(=O)c2cccc(CNc3ncc(-c4cn[nH]c4)c4c3CCO4)c2)cc1 [Example 24, 3-(((7-(1H-pyrazol-4-yl)-2,3-dihydrofuro[3,2-c]pyridin-4-yl)amino)methyl)-N-(4-((dimethylamino)methyl)benzyl)benzamide]
≤ 3 | ≤ 3 | Cc1ccc(CNC(=O)c2cccc(CNc3ncc(-c4cn[nH]c4)c4c3CCO4)c2)s1 [Example 25, 3-(((7-(1H-pyrazol-4-yl)-2,3-dihydrofuro[3,2-c]pyridin-4-yl)amino)methyl)-N-((5-methylthiophen-2-yl)methyl)benzamide]
≤ 3 | ≤ 3 | CN(C)CCn1cc(NC(=O)c2cccc(CNc3ncc(-c4cn[nH]c4)c4c3CCO4)c2)cn1 [Example 27, 3-(((7-(1H-pyrazol-4-yl)-2,3-dihydrofuro[3,2-c]pyridin-4-yl)amino)methyl)-N-(1-(2-(dimethylamino)ethyl)-1H-pyrazol-4-yl)benzamide]
3 to 30 | ≤ 3 | CN1CCc2nc(CNC(=O)c3cccc(CNc4ncc(-c5cn[nH]c5)c5c4CCO5)c3)sc2C1 [Example 29, 3-(((7-(1H-pyrazol-4-yl)-2,3-dihydrofuro[3,2-c]pyridin-4-yl)amino)methyl)-N-((5-methyl-4,5,6,7-tetrahydrothiazolo[5,4-c]pyridin-2-yl)methyl)benzamide]
≤ 3 | ≤ 3 | CN1Cc2ccc(CNC(=O)c3cccc(CNc4ncc(-c5cn[nH]c5)c5c4CCO5)c3)cc2C1 [Example 30, 3-(((7-(1H-pyrazol-4-yl)-2,3-dihydrofuro[3,2-c]pyridin-4-yl)amino)methyl)-N-((2-methylisoindolin-5-yl)methyl)benzamide]
≤ 3 | ≤ 3 | CN(C)Cc1cccc(C(=O)Nc2cccc(CNc3ncc(-c4cn[nH]c4)c4c3CCO4)c2)c1 [Example 49, N-(3-(((7-(1H-pyrazol-4-yl)-2,3-dihydrofuro[3,2-c]pyridin-4-yl)amino)methyl)phenyl)-3-((dimethylamino)methyl)benzamide]
